These are literature values, as cited in US11992546B2, “Process of coloring keratinous material comprising the use of an organosilicon compound, an effect pigment, and a sealing reagent vi” (Henkel AG & Co. KGaA, priority 2019, dated 2024).

Like-named read-outs stand apart in the source and are kept apart here.

For the compound `Nc1cc(S(=O)(=O)[O-])cc2cc(S(=O)(=O)[O-])c(N=Nc3ccccc3)c(O)c12.[Na+].[Na+]` [Acid Red 33, disodium salt of 5-amino-4-hydroxy-3-(phenylazo)-naphthalene-2,7-disulphonate], where the note is “25° C.”, the solubility in water was 2500 µg/mL. Take `O=S(=O)([O-])c1ccc(N=Nc2c(O)ccc3ccccc23)cc1.[Na+]` [Acid Orange 7, sodium salt of 4-[(2-hydroxy-1-naphthyl)azo]benzene sulphonate]: the solubility in water result (25° C.) was “more than 7 g/L”.

For `O=C([O-])C1=NN(c2ccc(S(=O)(=O)[O-])cc2)C(=O)C1N=Nc1ccc(S(=O)(=O)[O-])cc1.[Na+].[Na+].[Na+]` (stereo not shown) [Acid Yellow 23, trisodium salt of 4,5-dihydro-5-oxo-1-(4-sulfophenyl)-4-((4-sulfophenyl)azo)-1H-pyrazole-3-carboxylic acid], the “solubility in water” value (at 25° C.) is on record as “highly soluble”. Consider `O=C([O-])c1c(Cl)c(Cl)c(Cl)c(Cl)c1-c1c2c(Br)cc(=O)c(Br)c-2oc2c(Br)c(O)cc(Br)c12.O=C([O-])c1c(Cl)c(Cl)c(Cl)c(Cl)c1-c1c2c(Br)cc(=O)c(Br)c-2oc2c(Br)c(O)cc(Br)c12.[Na+].[Na+]` [Acid Red 92, disodium salt of 3,4,5,6-tetrachloro-2-(1,4,5,8-tetrabromo-6-hydroxy-3-oxoxanthen-9-yl)benzoic acid], for which, where the note is “25° C.”, the solubility in water entry is listed as “greater than 10 g/L”.
